Measured values published in US20030082101A1, “Accelerators for increasing the rate of formation of free radicals and reactive oxygen species” (Cavalier Discovery, priority 2001, published 2003).

How the values were obtained:
Assay type in all cases: biochemical
deoxyribose [1] = assay: TBARS assay, metals that enhance radical production during ultrasound (Example 6)
Experimental: (§1) The following example uses the thiobarbituric acid-reactive substances (TBARS) assay to identify metals that enhance radical production during ultrasound. All solutions were prepared in pH 7.5 phosphate buffer containing approximately 2 mM deoxyribose, 0.01% hydrogen peroxide, and the additives indicated in the table below. Solutions were sonicated at 30 W, 2 MHz, 32-34 degrees Celsius for ten minutes using a PZT-8 1.8 cm diameter custom transducer. The sonicated solution was placed on an orbit shaker rotating at 25 RPM to ensure even sonication of the solution while the transducer was held stationary. Control solutions were placed in a controlled temperature bath at 32-34 degrees Celsius without sonication. After 10 minutes of treatment, 1 mL test solution was placed in a test tube followed by 2 mL of 1% 2-thiobarbituric acid and 2 mL of 2.8% trichloroacetic acid. The test tube was sealed and heated to 90 degrees Celsius for 30 minutes and allowed to cool to room temperature for 20 minutes. The absorbance at 532 nm was measured. The enhanced radical production during ultrasound exposure was determined by comparing the amount of deoxyribose degradation that occurs in the sonicated solution versus the control solution using the following equation: [formula]

ferritin [2] = assay: Release of iron from ferritin assay, anthraquinones, ultrasound (Example 9); settings: 0.2 mg/mL ferritin, pH 7.5, 15 min
Experimental: All solutions are prepared in pH 7.5 phosphate buffer containing approximately 0.2 mg/mL ferritin and 1 mM ferrozine, and the concentration of anthraquinone indicated in the table below. Solutions are sonicated at 30 W, 2 MHz, 32-34 degrees Celsius for fifteen minutes using a PZT-8 1.8 cm diameter custom transducer. The sonicated solution is placed on an orbit shaker rotating at 25 RPM to ensure even sonication of the solution while the transducer is held stationary. Control solutions are placed in a controlled temperature bath at 32-34 degrees Celsius without sonication. After 15 minutes of treatment, an aliquot is tested for the presence of the iron-ferrozine chelate via absorbance at 562 nm. The amount of iron released is determined using the control solution corrected absorbance (subtract the absorbance of the control solution from the absorbance of the ultrasound solution). The corrected absorbance is compared to a ferrozine-iron standard curve to determine the amount of iron released.

deoxyribose [3] = assay: TBARS assay, existing sonodynamic agents with a metal, ultrasound (Example 13); settings: 0.025 mM ferrous iron, 0.025 mM ferric iron
Experimental: as §1, with “All” for “The following example uses the thiobarbituric acid-reactive substances (TBARS) assay to identify metals that enhance radical production during ultrasound. All”, “peroxide, 0.025 mM ferrous iron, 0.025 mM ferric iron,” for “peroxide,”

ferritin [4] = assay: Release of iron from ferritin assay, additives, ultrasound (Example 10); settings: 0.2 mg/mL ferritin, pH 7, 15 min
Experimental: (§2) The following example uses the release of iron from ferritin assay to show the effect of additives on the release of iron from ferritin during ultrasound exposure. All solutions were prepared in pH 7 acetic acid solution containing approximately 0.2 mg/mL ferritin and 1 mM ferrozine, and the concentration of 1,4-quinone indicated in the table below. Solutions were sonicated at 30 W, 2 MHz, 32-34 degrees Celsius for fifteen minutes using a PZT-8 1.8 cm diameter custom transducer. The sonicated solution was placed on an orbit shaker rotating at 25 RPM to ensure even sonication of the solution while the transducer was held stationary. Control solutions were placed in a controlled temperature bath at 32-34 degrees Celsius without sonication. After 15 minutes of treatment, an aliquot was tested for the presence of the iron-ferrozine chelate via absorbance at 562 nm. The amount of iron released was determined using the control solution corrected absorbance (subtract the absorbance of the control solution from the absorbance of the ultrasound solution). The corrected absorbance was compared to a ferrozine-iron standard curve to determine the enhanced iron release due to ultrasound exposure. The enhanced iron release due to ultrasound exposure in the presence of the additive was compared to the amount of enhanced iron release due to ultrasound exposure in the absence of any additives as follows: [formula]

deoxyribose [5] = assay: TBARS assay, existing sonodynamic agents with a metal, ultrasound (Example 14); settings: 0.025 mM ferrous iron, 0.025 mM ferric iron
Experimental: as §1, with “All” for “The following example uses the thiobarbituric acid-reactive substances (TBARS) assay to identify metals that enhance radical production during ultrasound. All”, “are” for “were”, “peroxide, 0.025 mM ferrous iron, 0.025 mM ferric iron,” for “peroxide,”, “is” for “was”

deoxyribose [6] = assay: TBARS assay, additives with ferrous iron/EDTA, ultrasound (Example 11); settings: 0.075 mM additive; 0.05 mM ferrous iron, 0.075 mM EDTA
Experimental: as §1, with “are” for “were”, “peroxide, 0.05 mM ferrous iron added as FeSO4 hydrate, 0.075 mM EDTA,” for “peroxide,”, “is” for “was”

[7] = Free radical production when exposed to ultrasound and a metal (statements in the description); settings: when exposed to ultrasound and a metal
ferritin [8] = assay: Release of iron from ferritin assay, naphthoquinones, ultrasound (Example 8); settings: iron release vs ultrasound without additive, 0.2 mg/mL ferritin, pH 7, 15 min
Experimental: as §2, with “of naphthoquinones” for “of additives”, “of naphthoquinone” for “of 1,4-quinone”, “the amount of” for “the enhanced”, “iron released.” for “iron release due to ultrasound exposure.”, “the naphthoquinone” for “the additive”

In the case of Ferritin, the “% Ultrasound Mediated Activity vs Control” value (deoxyribose [1]; ferritin approx. 0.2 mg/mL) is reported as 6%.
In the case of `[Cl][Fe]([Cl])[Cl]` [Ferric iron added as FeCl3, FeCl3], the “% Ultrasound Mediated Activity vs Control” value (deoxyribose [1]; ferric iron approx 0.1 mM) is reported as 76%.
In the case of `Cc1cc(O)c2c(c1)C(=O)c1cc(O)cc(O)c1C2=O` [Emodin, 6-methyl-1,3,8-trihydroxyanthraquinone], the “% Ultrasound Mediated Activity” value (ferritin [2]; 0.05 mM additive) is reported as over 50%.
For `O=S(=O)([O-])[O-].O=S(=O)([O-])[O-].[Fe+2].[NH4+].[NH4+]` [Ferrous iron added as Fe(NH4)2(SO4)2, Fe(NH4)2(SO4)2], the “% Ultrasound Mediated Activity vs Control” value (deoxyribose [1]; ferrous iron 0.1 mM) was 12%.
With `O=C([O-])c1c(Cl)c(Cl)c(Cl)c(Cl)c1-c1c2cc(I)c(=O)c(I)c-2oc2c(I)c([O-])c(I)cc12.[Na+].[Na+]` [Rose Bengal] the “% Ultrasound Mediated Activity vs Control” value (deoxyribose [3]; 0.028 mM additive) was 28%.
With `O=C(O)/C(O)=C(\O)C(=O)O` [DIHYDROXYFUMARATE] the “% Ultrasound Mediated Activity” value (ferritin [4]; 0.01 mM additive) was 72%.
In the case of Hypocrellin A, the “% Ultrasound Mediated Activity vs Control” value (deoxyribose [5]; 0.025 mM additive) is reported as over 30%.
In the case of `O=c1c(O)c(-c2ccc(O)c(O)c2)oc2cc(O)cc(O)c12` [Quercetin], the “% Ultrasound Mediated Activity vs Control” value (deoxyribose [6]) is reported as over 100%.
For `O=C1c2ccccc2C(=O)c2c1cc(S(=O)(=O)O)c(O)c2O` [Alizarin Red S, 3,4-dihydroxy-9,10-dioxo-2-anthracenesulfonic acid], the “% Ultrasound Mediated Activity” value (ferritin [2]; 0.05 mM additive) was over 50%.
In the case of `O=c1c(O)c(-c2cc(O)c(O)c(O)c2)oc2cc(O)cc(O)c12` [Myricetin], the “% Ultrasound Mediated Activity vs Control” value (deoxyribose [6]) is reported as over 100%.
For `O=C1C=CC(=O)C=C1` [1,4 benzoquinone], the “% Ultrasound Mediated Activity” value (ferritin [4]; concentration not given) was 0%.
For “Iron(III) phthalocyanine-4,4′,4″,4″′-tetrasulfonic acid”, the “% Ultrasound Mediated Activity vs Control” value (deoxyribose [5]; 0.025 uM additive) was over 30%.
With `O=C1C(O)=C(O)C(=O)C(O)=C1O` [Tetrahydroxy 1,4-benzoquinone] the “% Ultrasound Mediated Activity” value (ferritin [4]; 0.11 mM additive) was 186%.
For `N[C@@H](CS)C(=O)O` [CYSTEINE], the “% Ultrasound Mediated Activity” value (ferritin [4]; 0.45 mM additive) was 160% and the free radical production [7] was “increase free radical production”.
With `[Cl][Cu][Cl]` [Cupric chloride] the “% Ultrasound Mediated Activity vs Control” value (deoxyribose [1]; cupric chloride 0.026 mM) was 82%.
For `O=C(O)c1cc(O)c2c(c1)C(=O)c1cccc(O)c1C2=O` [Rhein, 9,10-dihydro-4,5-dihydroxy-9,10-dioxo-2-anthracenecarboxylic acid], the “% Ultrasound Mediated Activity” value (ferritin [2]; 0.05 mM additive) was over 50%.
With `COc1cccc2c1C(=O)c1c(O)c3c(c(O)c1C2=O)C[C@@](O)(C(=O)CO)C[C@@H]3O[C@H]1C[C@H](N)[C@H](O)[C@H](C)O1` [Adriamycin] the “% Ultrasound Mediated Activity vs Control” value (deoxyribose [3]; 0.029 mM additive) was 29%.
In the case of `CC(C)(S)[C@@H](N)C(=O)O` [PENICILLAMINE], the “% Ultrasound Mediated Activity” value (ferritin [4]; 0.11 mM additive) is reported as 117% and the free radical production [7] is reported as “increase free radical production”.
With `O=C1c2ccccc2C(=O)c2cc(S(=O)(=O)O)ccc21` [Anthraquinone-2-sulfonic acid] the “% Ultrasound Mediated Activity” value (ferritin [2]; concentration not given) was under 10%.
With `O=C1C=CC(=O)c2c(O)cccc21` [5-hydroxy-1,4-naphthoquinone (juglone), 5-hydroxy-1,4-naphthoquinone] the “% Ultrasound Mediated Activity” value (ferritin [8]; 10 uM additive) was 93%.
With `CC1=CC(=O)c2c(O)cccc2C1=O` [5-hydroxy-2-methyl-1,4-naphthoquinone] the “% Ultrasound Mediated Activity” value (ferritin [8]; 71 uM additive) was 155%.
In the case of `CC(C)=CCC1=C(O)C(=O)c2ccccc2C1=O` [2-hydroxy-3-(3-methyl-2-butenyl)-1,4-naphthoquinone], the “% Ultrasound Mediated Activity” value (ferritin [8]; 15 uM additive) is reported as 72%.
For `Cc1cc(O)c2c(c1)C(=O)c1cccc(O)c1C2=O` [Chrysophanol, 1,8-dihydroxy-3-methylanthraquinone], the “% Ultrasound Mediated Activity” value (ferritin [2]; 0.05 mM additive) was over 50%.
